Each structure is given as a SMILES string.

The target of experiment [1] is T1, IRAK1 (Homo sapiens, UniProt P51617).
T1 construct: purchased RBC (Reaction Biology) HotSpot assay
Briefly: RBC HotSpot Kinase Assay, IRAK1. The experiment is classed as biochemical. Conditions: HotSpot functional assay, isolated kinase enzyme, 33P-ATP. The source says:
(§1) This assay uses the isolated kinase enzyme. This assay is very useful for determining competition of the inhibitor for ATP and/or substrates and for measuring the kinetics of enzyme inhibition. […] Unlike kinase binding assays that measure competition for ATP, the HotSpot Kinase Assay is a functional assay that measures catalytic activity; as such it measures relative functional potency regardless of the mechanism of enzyme inhibition. This assay uses the form of the various enzymes that are easiest to express, which may not necessarily be the form of the enzyme that exist in the cell. (Sometimes the carboxy terminus has been truncated to aid in expression, or, if it is a receptor kinase, the enzyme itself is isolated from the other parts of the receptor that are involved in regulating kinase activity.)
(§2) The reagent used was as follows: Base Reaction buffer; 20 mM Hepes (pH 7.5), 10 mM MgCl2, 1 mM EGTA, 0.01% Brij35, 0.02 mg/mi BSA, 0.1 mM Na3VO4, 2 mM DTT, 1% DMSO. Required cofactors were added individually to each kinase reaction.
(§3) The reaction procedure was as follows: • 1) Substrates were prepared in freshly prepared Reaction Buffer. • 2) Any required cofactors were delivered to the substrate solution above. • 3) Kinase was delivered into the substrate solution and gently mixed. • 4) Compounds were delivered in 100% DMSO into the kinase reaction mixture by Acoustic technology (Echo550, nanoliter range), followed by incubation for 20 min at room temp. • 5) ^33P-ATP was delivered into the reaction mixture to initiate the reaction. • 6) The mixture was incubated for 2 hours at room temperature. • 7) Kinase activity was detected by P81 filter-binding method.

The target of experiment [2] is T2, IRAK4 (Homo sapiens, UniProt Q9NWZ3).
T2 sequence (Q9NWZ3 1-460): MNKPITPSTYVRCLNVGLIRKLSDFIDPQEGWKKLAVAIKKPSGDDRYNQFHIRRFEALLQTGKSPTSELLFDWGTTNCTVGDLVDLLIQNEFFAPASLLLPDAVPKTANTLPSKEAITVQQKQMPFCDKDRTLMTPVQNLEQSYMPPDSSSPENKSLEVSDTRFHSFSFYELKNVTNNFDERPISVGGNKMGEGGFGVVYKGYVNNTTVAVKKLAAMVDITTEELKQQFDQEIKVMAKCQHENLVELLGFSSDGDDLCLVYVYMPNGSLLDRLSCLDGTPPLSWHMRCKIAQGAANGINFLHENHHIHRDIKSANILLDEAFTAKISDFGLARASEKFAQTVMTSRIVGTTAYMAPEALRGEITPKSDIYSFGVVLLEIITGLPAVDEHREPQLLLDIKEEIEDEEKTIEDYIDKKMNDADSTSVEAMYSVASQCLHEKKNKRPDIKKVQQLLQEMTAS
Put plainly: RBC HotSpot Kinase Assay, IRAK4. In kind it is biochemical. Also on record: purchased RBC (Reaction Biology) HotSpot assay. As to conditions: HotSpot functional assay, isolated kinase enzyme, 33P-ATP.
Excerpt: as §1, §2, §3

The target of experiment [3] is T3, FLT3 (Homo sapiens, UniProt P36888).
T3 sequence (P36888 27-993): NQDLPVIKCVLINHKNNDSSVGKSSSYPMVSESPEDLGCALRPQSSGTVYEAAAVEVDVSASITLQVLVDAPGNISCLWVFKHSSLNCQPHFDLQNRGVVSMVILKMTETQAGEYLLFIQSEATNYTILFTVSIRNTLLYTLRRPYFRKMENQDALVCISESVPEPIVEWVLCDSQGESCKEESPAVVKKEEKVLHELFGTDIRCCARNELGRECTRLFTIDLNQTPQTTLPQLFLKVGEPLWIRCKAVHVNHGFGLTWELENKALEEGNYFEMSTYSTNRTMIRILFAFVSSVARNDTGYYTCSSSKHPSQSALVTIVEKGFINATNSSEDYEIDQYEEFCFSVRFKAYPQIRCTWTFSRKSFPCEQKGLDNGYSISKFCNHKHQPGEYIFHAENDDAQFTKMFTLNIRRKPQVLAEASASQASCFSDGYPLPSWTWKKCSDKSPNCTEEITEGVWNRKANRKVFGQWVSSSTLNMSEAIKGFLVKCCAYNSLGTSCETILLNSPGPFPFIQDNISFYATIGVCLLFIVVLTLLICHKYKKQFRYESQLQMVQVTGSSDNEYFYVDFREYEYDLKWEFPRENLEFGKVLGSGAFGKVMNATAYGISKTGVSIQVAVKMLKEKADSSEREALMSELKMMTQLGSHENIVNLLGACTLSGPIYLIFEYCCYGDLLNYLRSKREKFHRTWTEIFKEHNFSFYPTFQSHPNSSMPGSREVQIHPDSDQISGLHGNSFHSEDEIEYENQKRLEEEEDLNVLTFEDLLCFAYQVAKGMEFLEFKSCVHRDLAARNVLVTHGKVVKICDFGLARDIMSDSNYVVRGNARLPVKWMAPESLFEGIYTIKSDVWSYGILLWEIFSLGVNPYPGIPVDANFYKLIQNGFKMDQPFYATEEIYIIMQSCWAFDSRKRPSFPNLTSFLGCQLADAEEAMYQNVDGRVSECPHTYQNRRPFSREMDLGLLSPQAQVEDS
Put plainly: RBC HotSpot Kinase Assay, FLT3. Also on record: purchased RBC (Reaction Biology) HotSpot assay. The experiment is classed as biochemical. As to conditions: HotSpot functional assay, isolated kinase enzyme, 33P-ATP.
Excerpt: as §1, §2, §3

In experiment [4] the test system is THP1 cells. Put plainly: Combination drug screening, Cell Titer Glo, THP1 cells.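 Note: luminescence read out in 1536-well plates seeded with 500 THP1 cells per well, each drug spanning a 10-point concentration range in the combination matrix.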 As to conditions: sum score, THP1 cells, 10 × 10 dataset, 48 hours.
Excerpt: A smaller concentration indicates higher potency to synergize with Venetoclax. […] The numbers in each cell represent the % response (left) or the Delta Bliss score (right) at each given concentration combination.
A smaller concentration indicates higher potency to synergize with azacitidine. […] The numbers in each cell represent the % response (left) or the Delta Bliss score (right) at each given concentration combination.
(§4) This is a cell line that has the FLT3 ITD mutation but also the FLT3 D835Y kinase domain mutation. […] Excess HSA is a measure of synergy vs. additivity or antagonism, wherein a negative Excess HSA value is indicative of synergy.
Briefly, 10 nL of compounds were acoustically dispensed into 1536-well white polystyrene tissue culture-treated plates with an Echo 550 acoustic liquid handler (Labcyte). MOLM14 (D835Y) or THP1 cells were then added to compound-containing plates at a density of 500-cells/well in 5 μL of medium. A 10-point custom concentration range was used for all listed drugs. […] 48h post compound addition, 3 μL of Cell Titer Glo (Promega) were added to each well and plates were incubated at room temperature for 15 minutes with the stainless-steel lid in place. Luminescence readings were taken using a Viewlux imager (PerkinElmer) with a 2 second exposure time per plate.
In experiment [5] the test system is MOLM14 (D835Y) cells. Briefly: Combination drug screening, Cell Titer Glo, MOLM14 (D835Y) cells.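 Note: MOLM14 cells with FLT3 ITD plus D835Y, 500 per well in 1536-well plates, 10-point dose ranges, luminescent viability after 48 h, negative Excess HSA indicates synergy.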 As to conditions: MOLM14(D835Y) cells. Background: In ATP-based viability assays light output follows the ATP content of the culture.
Description: Briefly, 10 nL of the compound shown below was acoustically dispensed into 1536-well white polystyrene tissue culture-treated plates with an Echo 550 acoustic liquid handler (Labcyte). Cells were then added to compound-containing plate at a density of 500-cells/well in 5 μL of medium. A 6-point or 10-point custom concentration range was used for all listed drugs. Plates were incubated for 48 hours at standard incubator conditions covered by a stainless steel gasketed lid to prevent evaporation. 48h post compound addition, 3 μL of Cell Titer Glo (Promega) were added to each well and plates were incubated at room temperature for 15 minutes with the stainless-steel lid in place. Luminescence readings were taken using a Viewlux imager (PerkinElmer) with a 2 second exposure time per plate.
A smaller concentration indicates higher potency to synergize with Venetoclax.
A smaller concentration indicates higher potency to synergize with azacitidine.
as §4

T1 sequence (P51617 whole entry): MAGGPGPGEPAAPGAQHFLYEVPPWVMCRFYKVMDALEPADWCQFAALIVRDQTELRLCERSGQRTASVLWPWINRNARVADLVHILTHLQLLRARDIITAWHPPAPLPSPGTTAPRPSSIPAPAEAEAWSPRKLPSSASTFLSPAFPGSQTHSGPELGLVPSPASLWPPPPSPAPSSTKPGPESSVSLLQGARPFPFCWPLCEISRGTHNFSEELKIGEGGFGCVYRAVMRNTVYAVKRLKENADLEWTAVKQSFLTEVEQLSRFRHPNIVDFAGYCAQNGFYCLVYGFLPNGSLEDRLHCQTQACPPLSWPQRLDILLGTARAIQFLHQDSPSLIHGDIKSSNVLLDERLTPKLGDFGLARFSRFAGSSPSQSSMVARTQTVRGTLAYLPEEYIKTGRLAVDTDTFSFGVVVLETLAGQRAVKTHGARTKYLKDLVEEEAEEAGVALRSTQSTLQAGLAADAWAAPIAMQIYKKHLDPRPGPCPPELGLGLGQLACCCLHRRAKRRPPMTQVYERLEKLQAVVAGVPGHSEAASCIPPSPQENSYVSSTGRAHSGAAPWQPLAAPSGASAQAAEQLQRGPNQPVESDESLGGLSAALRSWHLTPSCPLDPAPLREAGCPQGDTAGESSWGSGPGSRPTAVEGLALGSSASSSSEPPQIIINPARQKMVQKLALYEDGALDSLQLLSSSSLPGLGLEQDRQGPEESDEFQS

The IC50 is the point on the concentration scale where inhibition reaches its midpoint. As to `COc1cc2ncc(-c3nc(N[C@H]4CNC[C@@H]4F)c(F)cc3F)n2nc1N1CCCC1=O` [Compound 24a, 1-(3-(3,5-difluoro-6-(((3S,4S)-4-fluoropyrrolidin-3-yl)amino)pyridin-2-yl)-7-methoxyimidazo[1,2-b]pyridazin-6-yl)pyrrolidin-2-one], the IC50 amounted to 186 nM in experiment [1], 11 nM in experiment [2] and 1 nM in experiment [3].

On to `COc1cc2ncc(-c3nc(N[C@H]4CNCC[C@@H]4F)c(F)cc3F)n2nc1N1CCCC1=O` [Compound 22a, 1-(3-(3,5-difluoro-6-(((3S,4S)-4-fluoropiperidin-3-yl)amino)pyridin-2-yl)-7-methoxyimidazo[1,2-b]pyridazin-6-yl)pyrrolidin-2-one], for which the IC50 in experiment [1] was 55 nM; in experiment [2], 9 nM; in experiment [3], under 0.5 nM.

Take `COc1cc2ncc(-c3nc(N[C@H]4CNC[C@@H]4F)c(C)cc3C)n2nc1C1CC1` [Compound 63a, 6-(6-cyclopropyl-7-methoxyimidazo[1,2-b]pyridazin-3-yl)-N-((3S,4S)-4-fluoropyrrolidin-3-yl)-3,5-dimethylpyridin-2-amine]: the half-inhibitory concentration (IC50) is over 10000 nM in experiment [1], over 10000 nM in experiment [2] and 377 nM in experiment [3].

As to `COc1cc2ncc(-c3cc(C)cc(N[C@H]4CNC[C@@H]4F)n3)n2nc1C1CC1` [Compound 50a, 6-(6-cyclopropyl-7-methoxyimidazo[1,2-b]pyridazin-3-yl)-N-((3S,4S)-4-fluoropyrrolidin-3-yl)-4-methylpyridin-2-amine], the concentration for half-maximal inhibition (IC50) is 8270 nM in experiment [1], 5240 nM in experiment [2] and 2 nM in experiment [3].

Take `COc1cc2ncc(-c3nc(N[C@@H]4CCCNC4)c(F)cc3F)n2nc1C1CCCCC1` [Compound 20a, (R)-6-(6-cyclohexyl-7-methoxyimidazo[1,2-b]pyridazin-3-yl)-3,5-difluoro-N-(piperidin-3-yl)pyridin-2-amine]: the results for the concentration for half-maximal inhibition (IC50) in experiment [1], in experiment [2] and in experiment [3] were 6 nM, 6 nM and under 0.5 nM, respectively.

For `COc1cc2ncc(-c3nc(N[C@H]4CNC[C@@H]4F)c(F)cc3F)n2nc1N1CCCS1(=O)=O` [Compound 69a, 2-(3-(3,5-difluoro-6-(((3S,4S)-4-fluoropyrrolidin-3-yl)amino)pyridin-2-yl)-7-methoxyimidazo[1,2-b]pyridazin-6-yl)isothiazolidine 1,1-dioxide], the IC50 was 125 nM in experiment [1], 4 nM in experiment [2] and under 0.5 nM in experiment [3].

For `COc1cc2ncc(-c3nc(N[C@H]4CNCC[C@@H]4F)c(F)cc3F)n2nc1C1CCCCC1` [Compound 21a, 6-(6-cyclohexyl-7-methoxyimidazo[1,2-b]pyridazin-3-yl)-3,5-difluoro-N-((3S,4S)-4-fluoropiperidin-3-yl)pyridin-2-amine], the IC50 in experiment [1] is 5 nM; in experiment [2] it was 21 nM; in experiment [3], under 0.5 nM.

In the case of `COc1cc2ncc(-c3nc(N[C@@H]4CCCNC4)c(C)cc3C)n2nc1C1CC1` [Compound 62a], the figures for the IC50 in experiment [1], in experiment [2] and in experiment [3] were over 10000 nM, over 10000 nM and 1420 nM, respectively.

For `C[C@@H]1OCC2(CCN(c3cnc(Sc4ccnc(N)c4Cl)c(N)n3)CC2)[C@@H]1N` [TNO-155], the “Excess HSA Score” value in experiment [4] (listed as compound in combination with CG-806 (a FLT3/BTK inhibitor)) was −198.4; in experiment [4] (listed as compound in combination with Compound 45a) it was 64.74; in experiment [4] (listed as compound in combination with Compound 46a) it was 591.7; in experiment [4] (listed as compound in combination with Compound 47a) it was 207; in experiment [4] (listed as compound in combination with Compound 48a), −3.87; in experiment [4] (listed as compound in combination with Compound 102), 485.0784. Moreover, the “Excess HSA Score” value in experiment [4] (listed as compound in combination with Compound 106) was −22.86; in experiment [4] (listed as compound in combination with Gilteritinib (a FLT3/AXL inhibitor)), 394.2; in experiment [4] (listed as compound in combination with PF-06650833 (an IRAK4 selective inhibitor)), −194.1; in experiment [4] (listed as compound in combination with Quizartinib (a FLT3/Kit/PDGFRa inhibitor)) it was 587.7; in experiment [4] (listed as compound in combination with emavusertib (CA-4948) (a FLT3/IRAK4 inhibitor)), 527.1; in experiment [5] (sum score, listed as compound in combination with Compound 106, 10 × 10 dataset, 48 hours), −943.9. Also, the “Sum Excess HSA Score” value in experiment [5] (combination therapy of CG-806 (a FLT3/BTK inhibitor) and the named additional compound, 110 × 10 dataset) was −753.6; in experiment [5] (combination therapy of Compound 45a and the named additional compound, 110 × 10 dataset), −1028; in experiment [5] (combination therapy of Compound 46a and the named additional compound, 110 × 10 dataset), −1041.6332; in experiment [5] (combination therapy of Compound 47a and the named additional compound, 110 × 10 dataset) it was −1163; in experiment [5] (combination therapy of Compound 48a and the named additional compound, 110 × 10 dataset) it was −1024; in experiment [5] (combination therapy of Compound 102 and the named additional compound, 10 × 10 dataset), −510.7. The “Sum Excess HSA Score” value in experiment [5] (combination therapy of Gilteritinib (a FLT3/AXL inhibitor) and the named additional compound, 110 × 10 dataset) is −895.7; in experiment [5] (combination therapy of PF-06650833 (an IRAK4 selective inhibitor) and the named additional compound, 110 × 10 dataset) it was −773.7; in experiment [5] (combination therapy of Quizartinib (a FLT3/Kit/PDGFRa inhibitor) and the named additional compound, 110 × 10 dataset), −1091; in experiment [5] (combination therapy of emavusertib (CA-4948) (a FLT3/IRAK4 inhibitor) and the named additional compound, 110 × 10 dataset), −470.2.

These data come from US20250368648A1, “MULTI-CYCLIC IRAK AND FLT3 INHIBITING COMPOUNDS AND USES THEREOF” (CHILDREN'S HOSPITAL MEDICAL CENTER, priority 2022, published 2025).
